In patent EP1983049B1, “Peptides binding to the Lck-SH3 and Hck-SH3 domains” (Forschungszentrum Jülich GmbH, priority 2005, dated 2006):
Where no end group is shown, it is not given here.

Assays:
Lck-SH3 [1] = target: T1, Lck-SH3 (Homo sapiens, UniProt P06239); assay: PepSpot membrane substitution analysis, relative Lck binding activity; settings: 7 of 12 positions of PD1-R substituted, 0,5 µg/ml SH3 protein, Fig. 4
T1 construct: Inkubation der Membran mit dem zu untersuchenden Protein (hier Lck-SH3); made in house
Text: Eine andere Methode, Protein-Protein-Wechselwirkungen zu untersuchen, ist die Benutzung so genannter PepSpot-Membranen. Sie basiert auf der Synthese von immobilisierten Peptiden auf aktivierten Membrane und kann z. B. zur Optimierung der Bindungseigenschaften bereits identifizierter Liganden durch Substitutionsanalyse verwendet werden. Nach der Inkubation der Membran mit dem zu untersuchenden Protein (hier Lck-SH3) und der anschließenden Detektion wird anhand der Spotfärbung eine Interaktion des Proteins mit den entsprechenden immobilisierten Peptiden nachgewiesen. Die Stärke der Spotintensitäten ist ein Maß für die Stärke der Bindung. Eine zusammenfassende Übersicht findet sich bei Reinecke U., Volkmer-Engert R., Schneider-Mergener J. Applikation of peptide arrays prepared by the SPOT-technology. Current Opinion in Biotechnology 2001, 12:59-64.
Für den Immunoassay wurde die PepSpot-Membran über Nacht in 20 ml Blocking Puffer geblockt. Nach einmaligem Waschen mit T-TBS für 10 min wurde die Membran für 3 h mit 0,5 µg/ml SH3 Protein in 20 ml Blocking Puffer inkubiert. Danach wurde die Membran dreimal für je 10 min mit T-TB S gewaschen. […] Die Spot-Intensitäten wurden mit der QuantityOne Software (Bio-Rad, München) ausgewertet Die Analyse der Spot-Intensitäten erfolgte nach Subtraktion des Hintergrundes. […]

Abl SH3 Domäne = Abl SH3 Domäne (Homo sapiens, UniProt P00519); assay: Fluorescence titration (intrinsic tryptophan fluorescence), binding constant; settings: Abl SH3 domain; fluorescence titration, 0,5 µM SH3 domain in PBS, 1mM DDT; each experiment done twice
Text: (§1) Die Messungen wurden im Wesentlichen wie bei Schweimer K, Hoffmann S, Bauer F, Friedrich U, Kardinal C, Feller SM, Biesinger B, Sticht H. Structural investigation of the bindung of a herpesviral protein to the SH3 domain of tyrosine kinase Lck. Biochemistry. 2002 Apr 23;41(16):5120-30 beschrieben unter Verwendung eines Perkin-Elmer LS 55 Fluoreszenzspektrometers bei einer Anregungswellenlänge von 290 nm und einer Emissionswellenlänge von 345 nm durchgeführt. […] Nach PD1-Zugabe wurde jeweils die resultierende Fluoreszenzänderung aufgezeichnet. Durch eine Kontrolltitration (Hintergrundmessung), bei welcher die Peptidlösung gegen Wasser ersetzt wurde, konnten die Abweichungen der Fluoreszenzweite, welche durch eine sinkende SH3-Endkonzentration während der Titration hervorgerufen wurden, ausgeglichen werden. […] F = Fmin + (([Pges] + [Lges] + Kd)/(2)-sqrt(((([Pges]+[Lges]+Kd))^2)/(4)-[Pges]*[Lges]))*((Fmax-Fmin))/(Pges) [formula]
(§2) Durch nichtlineare Regression mit Fmax und Kd als angepasste Parameter konnten die experimentellen Daten an obige Gleichung angepasst werden.

Hck-SH3 = Hck-SH3 (Homo sapiens, UniProt P08631); assay: as above; settings: Hck SH3 domain; fluorescence titration, 0,5 µM SH3 domain in PBS, 1mM DDT; each experiment done twice
Text: as §1, §2

Lck-SH3 [2] = target: T1, Lck-SH3; assay: as above; settings: Lck SH3 domain; fluorescence titration, 0,5 µM free SH3 domain in PBS, 1mM DDT; each experiment done twice
Text: as §1, §2

PI3K SH3 Domäne = PI3K SH3 Domäne (Homo sapiens, UniProt P27986); assay: as above; settings: PI3K SH3 domain; fluorescence titration, 0,5 µM SH3 domain in PBS, 1mM DDT; each experiment done twice
Text: as §1, §2

GST-Lck-SH3 = target: T2, GST-Lck-SH3 (Homo sapiens, UniProt P06239); assay: anti-Phage-ELISA, relative Lck-SH3 binding activity of phage clones; settings: phage-displayed peptide; detection at 450 nm; Fig. 1; 7 single experiments
T2 construct: rekombinant hergestellte Lck SH3 als Fusion mit Glutathion-S-Transferase (GST-Lck-SH3); made in house
Text: Dieser Bindungstest ist ein häufig verwendeter Test zur schnellen Bestimmung relativer Bindungsstarken selektierter Peptide, die hierbei noch physikalisch mit dem Phagen verknüpft vorliegen. Dieser Schritt dient auch zur Eliminierung von (bei dieser Methode nicht selten auftretenden) Phagenvarianten, die z. B. aufgrund ihrer Affinität zur Plastikoberfläche der verwendeten Mikrotiterplatten, angereichert werden und die somit zur Verfälschung der Ergebnisse führen können. Eine grundsätzliche Beschreibung der Methode findet sich z. B. unter Sparks et al. Methods Enzymol. 1995; 255:498-509.
GST-Lck-SH3 Protein wurde in einer Konzentration von 10 µg/ml in Tris-Bis über Nacht bei 4°C in Mikrotiterplatten immobilisiert. Verbleibende Bindungsstellen wurden durch 2-stündige Inkubation mit Blockierungspuffer (Bis-Tris mit 2.% Magermilchpulver) abgesättigt.
In einer anderen Mikrotiterplatte wurden zuerst je 100 µl Suspension der zu testenden Phagenvariante mit 100 µl Blockierungspuffer für 20 Minuten vorinkubiert und erst dann für 1 Stunde zum immobilisierten GST-Lck-SH3 Protein gegeben. Nach einem Waschschritt mit Bis-Tris wurde ein Meerrettich-Peroxidase-konjugierter Antikörper zugegeben und die Platten für eine weitere Stunde inkubiert. […]

T1 sequence (P06239 61-121 limits assumed): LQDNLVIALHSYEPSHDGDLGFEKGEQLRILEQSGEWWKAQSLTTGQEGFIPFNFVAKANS
Sequence of Abl SH3 Domäne (P00519 61-121 limits assumed): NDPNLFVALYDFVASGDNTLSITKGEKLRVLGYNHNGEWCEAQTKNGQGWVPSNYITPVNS
Sequence of Hck-SH3 (P08631 78-138 limits assumed): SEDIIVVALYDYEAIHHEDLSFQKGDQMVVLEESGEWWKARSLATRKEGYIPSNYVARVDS
Sequence of PI3K SH3 Domäne (P27986 3-79 limits assumed): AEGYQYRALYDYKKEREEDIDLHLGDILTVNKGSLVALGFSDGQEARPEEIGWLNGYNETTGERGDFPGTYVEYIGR
T2 sequence (P06239 61-121 limits assumed): as the sequence (P06239 61-121 limits assumed) above

## HFKRPLPPLPSL [PD1-R(-5)F, substitution variant of PD1-R found on PepSpot membrane]
Lck-SH3 [1]
  Bindung an die Lck-SH3 (Spot-Intensität): stärkste Bindung

## HSKRPLPPLPSL [PD1-R]
Abl SH3 Domäne
  Kd: > 300 µM
Hck-SH3
  Kd: 0.47 ± 0.02 µM
Lck-SH3 [2]
  Kd: 23.1 ± 1.97 µM
PI3K SH3 Domäne
  Kd: 13.1 ± 0.48 µM

## HSKYPLPPLPSL [PD1]
Abl SH3 Domäne
  Kd: > 300 µM
Hck-SH3
  Kd: 0.23 ± 0.03 µM
Lck-SH3 [2]
  Kd: 48.7 ± 1.65 µM
PI3K SH3 Domäne
  Kd: 112 ± 10.1 µM

## HTLQIPQHATSF
GST-Lck-SH3
  relative Lck-SH3-Bindungsaktivität: nicht bindende
